Assay results from ChEMBL document CHEMBL6134893, “The Exploration of Indole-Based LSD1-Targeted Inhibitors for Enhanced Immune Response in Gastric Cancer via the PD-L1/PD-1 Axis” (J Med Chem, 2025).

Experiments:
[1] = biological target: T1, Lysine-specific histone demethylase 1A (Homo sapiens, UniProt O60341); experiment: Inhibition of recombinant LSD1 (unknown origin) extracted from Escherichia coli BL21 (DE3) using H3K4me2 peptide as substrate in presence of […] by Amplex Red assay
[2] = biological target: T1, Lysine-specific histone demethylase 1A; experiment: Inhibition of LSD1 in human MKN-45 cells assessed as accumulation of membrane PD-L1 at 2 uM incubated for 5 days; assay type: cell-based; design: scale not given: the % may be the effect or the level left; conditions: time 5.0 day
[3] = biological target: Lysine-specific histone demethylase 1A (Mus musculus) (UniProt Q6ZQ88); experiment: Inhibition of LSD1 in mouse MFC cells assessed as accumulation of membrane PD-L1 at 2 uM incubated for 5 days; assay type: cell-based; design: scale not given: the % may be the effect or the level left; conditions: time 5.0 day

Compound | IC50 [1] [nM] | other results
C=C1C(=O)OCC1C(O)c1cn(S(=O)(=O)c2ccc(NCC(C)C)c([N+](=O)[O-])c2)c2ccc(Cl)cc12 (configuration not stated) | 131 | 
C=C1C(=O)OCC1C(O)c1cn(S(=O)(=O)c2ccccc2F)c2ccc(Cl)cc12 (configuration not stated) | 219 | 
C=C1C(=O)OCC1C(=O)c1cn(S(=O)(=O)c2ccc(Cl)cc2)c2ccc(Cl)cc12 (configuration not stated) | > 10000 | 
C=C1C(=O)OCC1C(O)c1cn(S(=O)(=O)c2ccc(C(F)(F)F)cc2)c2ccc(Cl)cc12 (configuration not stated) | 1460 | 
C=C1C(=O)OCC1C(O)c1cn(S(=O)(=O)c2ccc(N3C[C@@H]4C[C@H]3CN4C(=O)OC(C)(C)C)c([N+](=O)[O-])c2)c2ccc(Cl)cc12 (some centres not stated) | 3350 | 
C=C1C(=O)OCC1C(O)c1cn(S(=O)(=O)c2ccc(N3CCN(CC)CC3)c([N+](=O)[O-])c2)c2ccc(Cl)cc12 (configuration not stated) | 287 | 
C=C1C(=O)OCC1C(O)c1cn(S(=O)(=O)c2ccc(N3CCCC3)c([N+](=O)[O-])c2)c2ccc(Cl)cc12 (configuration not stated) | 2480 | 
C=C1C(=O)OCC1C(O)c1cn(S(=O)(=O)c2ccc(N3CCN(C)CC3)c([N+](=O)[O-])c2)c2ccc(Cl)cc12 (configuration not stated) | 463 | 
C=C1C(=O)OCC1C(O)c1cn(S(=O)(=O)c2ccccc2[N+](=O)[O-])c2ccc(Cl)cc12 (configuration not stated) | 755 | 
C=C1C(=O)OCC1C(O)c1cn(S(=O)(=O)c2ccccc2C)c2ccc(Cl)cc12 (configuration not stated) | 261 | 
C=C1C(=O)OCC1C(O)c1cn(S(=O)(=O)c2ccc(Cl)cc2Cl)c2ccc(Cl)cc12 (configuration not stated) | 363 | 
C=C1C(=O)OCC1C(O)c1cn(S(=O)(=O)c2ccc(N3CCN(C(=O)OC(C)(C)C)CC3)c([N+](=O)[O-])c2)c2ccc(Cl)cc12 (configuration not stated) | 459 | 
C=C1C(=O)OCC1C(O)c1cn(S(=O)(=O)c2ccc(Cl)c(Cl)c2)c2ccc(Cl)cc12 (configuration not stated) | 579 | 
C=C1C(=O)OCC1C(O)c1cn(S(=O)(=O)c2ccc(N3CCN(CCO)CC3)c([N+](=O)[O-])c2)c2ccc(Cl)cc12 (configuration not stated) | 284 | 
C=C1C(=O)OCC1C(O)c1cn(S(=O)(=O)c2ccc(CN3CCOCC3)cc2)c2ccc(Cl)cc12 (configuration not stated) | 606 | 
C=C1C(=O)OCC1C(O)c1cn(S(=O)(=O)c2ccc(Cl)cc2)c2ccc(Cl)cc12 (configuration not stated) | 929 | 
C=C1C(=O)OCC1C(O)c1cn(S(=O)(=O)c2ccc(CBr)cc2)c2ccc(Cl)cc12 (configuration not stated) | 933 | 
C=C1C(=O)OCC1C(O)c1cn(S(=O)(=O)c2ccc([N+](=O)[O-])cc2)c2ccc(Cl)cc12 (configuration not stated) | 1380 | 
C=C1C(=O)OCC1C(O)c1cn(S(=O)(=O)c2cccc(Cl)c2)c2ccc(Cl)cc12 (configuration not stated) | 746 | 
C=C1C(=O)OCC1C(O)c1cn(S(=O)(=O)c2ccc(N(CCC)CCC)c([N+](=O)[O-])c2)c2ccc(Cl)cc12 (configuration not stated) | 3390 | 
C=C1C(=O)OCC1C(O)c1cn(S(=O)(=O)c2ccccc2Cl)c2ccc(Cl)cc12 (configuration not stated) | 366 | 
C=C1C(=O)OCC1C(O)c1cn(S(=O)(=O)c2ccc(F)c(C(F)(F)F)c2)c2ccc(Cl)cc12 (configuration not stated) | 654 | 
C=C1C(=O)OCC1C(O)c1cn(S(=O)(=O)c2ccccc2)c2ccc(Cl)cc12 (configuration not stated) | 1110 | 
C=C1C(=O)OCC1C(O)c1cn(S(=O)(=O)C2CC2)c2ccc(Cl)cc12 (configuration not stated) | 5680 | 
C=C1C(=O)OCC1C(O)c1cn(S(=O)(=O)c2ccc(N3CCCC(NC(=O)OC(C)(C)C)C3)c([N+](=O)[O-])c2)c2ccc(Cl)cc12 (configuration not stated) | 714 | 
C=C1C(=O)OCC1C(O)c1cn(S(=O)(=O)c2ccc(F)cc2)c2ccc(Cl)cc12 (configuration not stated) | 1340 | 

Compound | IC50 [1] [nM] | other results
C=C1C(=O)OC/C1=C\c1cn(S(=O)(=O)c2ccc(Cl)cc2)c2ccc(Cl)cc12 | > 10000 | 
C=C1C(=O)OCC1C(O)c1cn(S(=O)(=O)c2c(Cl)cccc2Cl)c2ccc(Cl)cc12 (configuration not stated) | 968 | 
C=C1C(=O)OCC1C(O)c1cn(S(=O)(=O)c2ccc(N3CCCCC3)c([N+](=O)[O-])c2)c2ccc(Cl)cc12 (configuration not stated) | 2130 | 
C=C1C(=O)OCC1C(O)c1cn(S(=O)(=O)c2ccc(Br)cc2)c2ccc(Cl)cc12 (configuration not stated) | 1150 | 
C=C1C(=O)OCC1C(O)c1cn(S(=O)(=O)CCC)c2ccc(Cl)cc12 (configuration not stated) | 6650 | 
C=C1C(=O)OCC1C(O)c1cn(S(=O)(=O)c2ccc(NC)c([N+](=O)[O-])c2)c2ccc(Cl)cc12 (configuration not stated) | 89 | 
C=C1C(=O)OCC1C(O)c1ccn(S(=O)(=O)c2ccc(Cl)cc2)c1 (configuration not stated) | > 10000 | 
C=C1C(=O)OCC1C(O)c1ccn(S(=O)(=O)c2ccc(C)cc2)c1 (configuration not stated) | > 10000 | 
C=C1C(=O)OCC1C(O)c1cn(S(=O)(=O)c2ccc(CNCc3ccc(Cl)cc3)cc2)c2ccc(Cl)cc12 (configuration not stated) | 2340 | 
C=C1C(=O)OCC1C(O)c1ccn(S(=O)(=O)c2ccc(Br)cc2)c1 (configuration not stated) | > 10000 | 
O=S(=O)(c1ccc(Cl)cc1)n1cc(CNC2CC2)c2cc(Cl)ccc21 | > 10000 | 
C=C1C(=O)OCC1C(O)c1cn(S(=O)(=O)c2ccccc2Br)c2ccc(Cl)cc12 (configuration not stated) | 161 | 
O=S(=O)(c1ccc(Cl)cc1)n1cc(CNCC2CC2)c2cc(Cl)ccc21 | > 10000 | 
C=C1C(=O)OCC1C(O)c1cn(S(C)(=O)=O)c2ccc(Cl)cc12 (configuration not stated) | 9130 | 
C=C1C(=O)OCC1C(O)c1cn(S(=O)(=O)c2ccc(Cl)c(N)c2)c2ccc(Cl)cc12 (configuration not stated) | > 5000 | 
C=C1C(=O)OCC1C(O)c1cn(S(=O)(=O)c2ccc(N3CCCN(C(=O)OC(C)(C)C)CC3)c([N+](=O)[O-])c2)c2ccc(Cl)cc12 (configuration not stated) | 4960 | 
C=C1C(=O)OCC1C(O)c1cn(S(=O)(=O)c2ccc(N3CCC(NC(=O)OC(C)(C)C)C3)c([N+](=O)[O-])c2)c2ccc(Cl)cc12 (configuration not stated) | 440 | 
C=C1C(=O)OCC1C(O)c1cn(S(=O)(=O)c2ccc(NCCC)c([N+](=O)[O-])c2)c2ccc(Cl)cc12 (configuration not stated) | 664 | 
C=C1C(=O)OCC1C(O)c1cn(S(=O)(=O)c2cccc([N+](=O)[O-])c2)c2ccc(Cl)cc12 (configuration not stated) | 107 | 
C=C1C(=O)OCC1C(O)c1cn(S(=O)(=O)c2ccc(OC)cc2)c2ccc(Cl)cc12 (configuration not stated) | 855 | 
N[C@H]1CC[C@H](N[C@@H]2C[C@H]2c2ccccc2)CC1 |  | Activity [2]: 48.5%; Activity [3]: 40.4%
C=C1C(=O)OCC1C(O)c1cn(S(=O)(=O)c2ccc(Cl)c([N+](=O)[O-])c2)c2ccc(Cl)cc12 (configuration not stated) | 99 | 
C=C1C(=O)OCC1C(O)c1cn(S(=O)(=O)c2ccc(OC(F)(F)F)cc2)c2ccc(Cl)cc12 (configuration not stated) | 1420 | 
C=C1C(=O)OCC1C(O)c1cn(S(=O)(=O)c2ccc(CN3CCN(C(=O)OC(C)(C)C)CC3)cc2)c2ccc(Cl)cc12 (configuration not stated) | 1180 | 
C=C1C(=O)OCC1C(O)c1cn(S(=O)(=O)c2cccc(C(F)(F)F)c2)c2ccc(Cl)cc12 (configuration not stated) | 213 | 
